PubChem BioAssay (NCI)
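In this assay, cells in 96-well plates receive the compound at five concentrations for 48 hours. Endpoints are linearly interpolated between the surrounding concentrations. TGI: total growth inhibition.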

How the values were obtained:
Experiment in all cases: DTP human tumour cell line panel, 48 h
[1] = test system: HT29 colon
[2] = test system: NCI-H226 lung
[3] = test system: TK-10 renal
[4] = test system: LOX IMVI melanoma
[5] = test system: MDA-MB-435
[6] = test system: UACC-62 melanoma
[7] = test system: RPMI-8226 leukemia
[8] = test system: SN12C renal
[9] = test system: SK-MEL-5 melanoma
[10] = test system: SK-MEL-2 melanoma
[11] = test system: 786-0 renal
[12] = test system: NCI-H23 lung
[13] = test system: SF-539 CNS
[14] = test system: OVCAR-8 ovarian
[15] = test system: COLO 205 colon
[16] = test system: K-562 leukemia
[17] = test system: A549 NSCLC
[18] = test system: EKVX NSCLC
[19] = test system: M14 melanoma
[20] = test system: IGROV1 ovarian
[21] = test system: HL-60(TB) leukemia
[22] = test system: HCT-116 colon
[23] = test system: HCT-15 colon
[24] = test system: BT-549 breast
[25] = test system: SNB-75 CNS
[26] = test system: HCC-2998 colon
[27] = test system: MOLT-4 leukemia
[28] = test system: SK-OV-3 ovarian
[29] = test system: OVCAR-3 ovarian
[30] = test system: NCI-H460 lung
[31] = test system: A498 renal
[32] = test system: NCI/ADR-RES ovarian
[33] = test system: SW-620 colon
[34] = test system: OVCAR-5 ovarian
[35] = test system: KM12 colon
[36] = test system: UACC-257 melanoma
[37] = test system: SF-295 CNS
[38] = test system: ACHN renal
[39] = test system: OVCAR-4 ovarian
[40] = test system: DU-145 prostate
[41] = test system: SF-268 CNS
[42] = test system: SK-MEL-28 melanoma
[43] = test system: MDA-MB-231 breast
[44] = test system: U251 CNS
[45] = test system: MDA-N
[46] = test system: UO-31 renal
[47] = test system: PC-3 prostate
[48] = test system: SR leukemia
[49] = test system: HOP-62 NSCLC
[50] = test system: RXF 393 renal
[51] = test system: MALME-3M melanoma
[52] = test system: SNB-19 CNS
[53] = test system: MCF7 breast
[54] = test system: HOP-92 NSCLC
[55] = test system: T-47D breast
[56] = test system: CCRF-CEM leukemia
[57] = test system: HS 578T breast
[58] = test system: NCI-H522 lung
[59] = test system: CAKI-1 renal

`CCOC(=O)CC/C(=N/Nc1ccc(Cl)cc1[N+](=O)[O-])C(=O)OCC` showed a TGI [1] greater than 100 µM, a TGI [2] greater than 100 µM and a TGI [3] greater than 100 µM. It also gave a TGI [4] greater than 100 µM, a TGI [5] greater than 100 µM and a TGI [6] greater than 100 µM. For the same molecule, the TGI [7] was greater than 100 µM, the TGI [8] was greater than 100 µM and the TGI [9] was greater than 100 µM. It also gave a TGI [10] greater than 100 µM, a TGI [11] greater than 100 µM and a TGI [12] greater than 100 µM. For the same molecule, the TGI [13] was greater than 100 µM, the TGI [14] was greater than 100 µM and the TGI [15] was greater than 100 µM. The TGI [16] was greater than 100 µM, the TGI [17] was greater than 100 µM and the TGI [18] was greater than 100 µM. For the same molecule, the TGI [19] was greater than 100 µM, the TGI [20] was greater than 100 µM and the TGI [21] was greater than 100 µM. For the same molecule, the TGI [22] was greater than 100 µM, the TGI [23] was greater than 100 µM and the TGI [24] was greater than 100 µM. For the same molecule, the TGI [25] was greater than 100 µM, the TGI [26] was 71.5 µM and the TGI [27] was greater than 100 µM. For the same molecule, the TGI [28] was greater than 100 µM, the TGI [29] was greater than 100 µM and the TGI [30] was greater than 100 µM. The TGI [31] was greater than 100 µM, the TGI [32] was greater than 100 µM and the TGI [33] was greater than 100 µM. For the same molecule, the TGI [34] was greater than 100 µM, the TGI [35] was greater than 100 µM and the TGI [36] was greater than 100 µM. For the same molecule, the TGI [37] was greater than 100 µM, the TGI [38] was greater than 100 µM and the TGI [39] was greater than 100 µM. For the same molecule, the TGI [40] was greater than 100 µM, the TGI [41] was greater than 100 µM and the TGI [42] was greater than 100 µM. The TGI [43] was greater than 100 µM, the TGI [44] was greater than 100 µM and the TGI [45] was greater than 100 µM. For the same molecule, the TGI [46] was greater than 100 µM, the TGI [47] was greater than 100 µM and the TGI [48] was greater than 100 µM. It also gave a TGI [49] greater than 100 µM, a TGI [50] greater than 100 µM and a TGI [51] greater than 100 µM. It also gave a TGI [52] greater than 100 µM, a TGI [53] greater than 100 µM and a TGI [54] greater than 100 µM. For the same molecule, the TGI [55] was greater than 100 µM, the TGI [56] was greater than 100 µM and the TGI [57] was greater than 100 µM. For the same molecule, the TGI [58] was greater than 100 µM.

Molecule `c1ccc(C2=NOC(c3ccccc3)N2C23CC4CC(CC(C4)C2)C3)cc1` (stereo not given) has a TGI [1] greater than 10 µM, a TGI [2] greater than 10 µM and a TGI [3] greater than 10 µM. For the same molecule, the TGI [4] was greater than 10 µM, the TGI [5] was greater than 10 µM and the TGI [6] was greater than 10 µM. It also gave a TGI [7] greater than 10 µM, a TGI [8] greater than 10 µM and a TGI [9] greater than 10 µM. For the same molecule, the TGI [10] was greater than 10 µM, the TGI [11] was greater than 10 µM and the TGI [12] was greater than 10 µM. The TGI [13] was greater than 10 µM, the TGI [14] was greater than 10 µM and the TGI [15] was greater than 10 µM. The TGI [16] was greater than 10 µM, the TGI [17] was greater than 10 µM and the TGI [18] was greater than 10 µM. It also gave a TGI [19] greater than 10 µM, a TGI [20] greater than 10 µM and a TGI [59] greater than 10 µM. The TGI [21] was greater than 10 µM, the TGI [22] was greater than 10 µM and the TGI [23] was greater than 10 µM. The TGI [24] was greater than 10 µM, the TGI [25] was greater than 10 µM and the TGI [26] was greater than 10 µM. It also gave a TGI [27] greater than 10 µM, a TGI [28] greater than 10 µM and a TGI [29] greater than 10 µM. It also gave a TGI [30] greater than 10 µM, a TGI [31] greater than 10 µM and a TGI [32] greater than 10 µM. The TGI [33] was greater than 10 µM, the TGI [34] was greater than 10 µM and the TGI [35] was greater than 10 µM. For the same molecule, the TGI [36] was greater than 10 µM, the TGI [37] was greater than 10 µM and the TGI [38] was greater than 10 µM. For the same molecule, the TGI [39] was greater than 10 µM, the TGI [40] was greater than 10 µM and the TGI [41] was greater than 10 µM. The TGI [42] was greater than 10 µM, the TGI [43] was greater than 10 µM and the TGI [44] was greater than 10 µM. It also gave a TGI [45] greater than 10 µM, a TGI [47] greater than 10 µM and a TGI [48] greater than 10 µM. For the same molecule, the TGI [49] was greater than 10 µM, the TGI [50] was greater than 10 µM and the TGI [51] was greater than 10 µM. For the same molecule, the TGI [52] was greater than 10 µM, the TGI [53] was greater than 10 µM and the TGI [54] was greater than 10 µM. It also gave a TGI [55] greater than 10 µM, a TGI [56] greater than 10 µM and a TGI [57] greater than 10 µM. For the same molecule, the TGI [58] was greater than 10 µM.

`CCOC(=O)/C(C(C)=O)=C(\OC(C)=O)c1ccncc1C(=O)O` was tested, and the TGI [1] was greater than 100 µM, the TGI [2] was greater than 100 µM and the TGI [4] was greater than 100 µM. For the same molecule, the TGI [5] was greater than 100 µM, the TGI [6] was greater than 100 µM and the TGI [7] was greater than 100 µM. It also gave a TGI [8] greater than 100 µM, a TGI [10] greater than 100 µM and a TGI [11] greater than 100 µM. For the same molecule, the TGI [12] was greater than 100 µM, the TGI [13] was greater than 100 µM and the TGI [14] was greater than 100 µM. It also gave a TGI [15] greater than 100 µM, a TGI [16] greater than 100 µM and a TGI [17] greater than 100 µM. It also gave a TGI [18] greater than 100 µM, a TGI [19] greater than 100 µM and a TGI [20] greater than 100 µM. It also gave a TGI [59] greater than 100 µM, a TGI [21] greater than 100 µM and a TGI [22] greater than 100 µM. The TGI [23] was greater than 100 µM, the TGI [24] was greater than 100 µM and the TGI [25] was greater than 100 µM. For the same molecule, the TGI [26] was greater than 100 µM, the TGI [27] was greater than 100 µM and the TGI [28] was greater than 100 µM. It also gave a TGI [29] greater than 100 µM, a TGI [30] greater than 100 µM and a TGI [31] greater than 100 µM. For the same molecule, the TGI [32] was greater than 100 µM, the TGI [33] was greater than 100 µM and the TGI [34] was greater than 100 µM. For the same molecule, the TGI [35] was greater than 100 µM, the TGI [36] was greater than 100 µM and the TGI [37] was greater than 100 µM. For the same molecule, the TGI [38] was greater than 100 µM, the TGI [39] was greater than 100 µM and the TGI [40] was greater than 100 µM. The TGI [41] was greater than 100 µM, the TGI [42] was greater than 100 µM and the TGI [43] was greater than 100 µM. The TGI [44] was greater than 100 µM, the TGI [45] was greater than 100 µM and the TGI [46] was greater than 100 µM. For the same molecule, the TGI [47] was greater than 100 µM, the TGI [48] was greater than 100 µM and the TGI [50] was greater than 100 µM. It also gave a TGI [51] greater than 100 µM, a TGI [52] greater than 100 µM and a TGI [53] greater than 100 µM. The TGI [54] was greater than 100 µM, the TGI [55] was greater than 100 µM and the TGI [56] was greater than 100 µM. It also gave a TGI [57] greater than 100 µM and a TGI [58] greater than 100 µM.

With `COc1c2occc2c(N)c2ccc(=O)oc12` the TGI [1] was greater than 100 µM, the TGI [2] was greater than 100 µM and the TGI [3] was greater than 100 µM. It also gave a TGI [4] greater than 100 µM, a TGI [5] greater than 100 µM and a TGI [6] greater than 100 µM. The TGI [7] was greater than 100 µM, the TGI [8] was greater than 100 µM and the TGI [9] was greater than 100 µM. For the same molecule, the TGI [10] was greater than 100 µM, the TGI [11] was greater than 100 µM and the TGI [12] was greater than 100 µM. It also gave a TGI [13] greater than 100 µM, a TGI [14] greater than 100 µM and a TGI [15] greater than 100 µM. For the same molecule, the TGI [16] was greater than 100 µM, the TGI [17] was greater than 100 µM and the TGI [18] was greater than 100 µM. The TGI [19] was greater than 100 µM, the TGI [20] was greater than 100 µM and the TGI [59] was greater than 100 µM. It also gave a TGI [21] greater than 100 µM, a TGI [22] greater than 100 µM and a TGI [23] greater than 100 µM. It also gave a TGI [24] greater than 100 µM, a TGI [25] of 69.1 µM and a TGI [26] greater than 100 µM. It also gave a TGI [27] greater than 100 µM, a TGI [29] greater than 100 µM and a TGI [30] greater than 100 µM. The TGI [31] was greater than 100 µM, the TGI [32] was greater than 100 µM and the TGI [33] was greater than 100 µM. It also gave a TGI [34] greater than 100 µM, a TGI [35] greater than 100 µM and a TGI [36] greater than 100 µM. The TGI [37] was greater than 100 µM, the TGI [38] was greater than 100 µM and the TGI [39] was greater than 100 µM. The TGI [40] was greater than 100 µM, the TGI [41] was greater than 100 µM and the TGI [42] was greater than 100 µM. For the same molecule, the TGI [43] was greater than 100 µM, the TGI [44] was greater than 100 µM and the TGI [45] was greater than 100 µM. It also gave a TGI [46] greater than 100 µM, a TGI [47] greater than 100 µM and a TGI [48] greater than 100 µM. For the same molecule, the TGI [49] was greater than 100 µM, the TGI [50] was greater than 100 µM and the TGI [51] was greater than 100 µM. The TGI [52] was greater than 100 µM, the TGI [53] was greater than 100 µM and the TGI [54] was greater than 100 µM. It also gave a TGI [55] greater than 100 µM, a TGI [56] greater than 100 µM and a TGI [57] greater than 100 µM. It also gave a TGI [58] greater than 100 µM.
